# Test results taken from publication PMC9146215, “Design of D-Amino Acids SARS-CoV-2 Main Protease Inhibitors Using the Cationic Peptide from Rattlesnake Venom as a Scaffold” (Pharmaceuticals, 2022).
# Positions of bridges follow the written chain, without caps; N, C: chain ends. Non-standard residues stand in square brackets, D forms with d. Residues, ends and D or L forms follow the SMILES beside them. No end group written: not given here.
# What was measured:
# SARS-CoV-2 3CL^pro [1] = target: T1, SARS-CoV-2 3CL^pro (Severe acute respiratory syndrome coronavirus 2, UniProt P0DTD1); assay: Determination of inhibition mode (Lineweaver-Burk plot); assay type: biochemical; details: 0.5 µM 3CLpro, 30 min incubation at RT, triplicate
# T1 construct: SARS-CoV-2 3CL^pro (Uniprot entry: P0DTD1, virus strain: hCoV-19/Wuhan/WIV04/2019) was cloned, expressed, and purified; GST (cleaved yes); made in house; host or cells: E. coli Lemo21 (DE3)
# Description: The inhibition mode was determined using different final concentrations of the inhibitors and substrate. […] The remaining L-peptides were not tested.
# Briefly, 0.5 µM SARS-CoV-2 3CL^pro was incubated with the inhibitor, in various concentrations, for 30 min at RT. Subsequently, the reaction was initiated by adding the corresponding concentration series of the substrate. The data were analysed using a Lineweaver-Burk plot; therefore, the reciprocal of velocity (1/V) vs the reciprocal of the substrate concentration (1/[S]) was compared. All measurements were performed in triplicate, and data are presented as mean ± SD.
# pepsin = pepsin (Sus scrofa, UniProt P00791); assay: L- and D-peptide stability against pepsin hydrolysis (simulated gastric fluid); assay type: in vitro ADME; details: simulated gastric fluid: 3.2 mg/mL pepsin, pH 1.0, 37 °C, 4 and 8 h; RP-HPLC
# Description: (§1) As protein hydrolysis is initiated by pepsin, we have performed a hydrolysis experiment simulating gastric fluid for both selected L- and D-peptides. After incubation over 4 and 8 h, the sample was analysed using RP-HPLC (Supplementary Figure S8).
# (§2) The preparation of the pepsin solution was performed as described before. The experiment solution contains 2 mg/mL NaCl, 3.2 mg/mL pepsin, and 80 mM HCL at a pH 1.0. This solution simulated gastric fluid. […] Samples were taken after 0 h, 4 h, and 8 h. The samples were analysed by reversed-phase high-performance liquid chromatography (RP-HPLC). The RP-HPLC system (Agilent Technologies, Santa Clara, CA, USA; 1200 series) consisted of a manual injector, quaternary pump, a thermostatted column compartment, and a variable wavelength detector. Chromatography was performed with a C18 column (Agilent Technologies, Santa Clara, CA, USA; ZORBAX 300SB-C18 5 µm, 4.6 × 250 mm) at 25 °C and 214 nm with a flow rate of 1 mL/min. The sample injection volume was 20 µL. Chromatograms were recorded and analysed with the Agilent software ChemStation (G2175BA; B03.01). Mobile phases were acetonitrile (A) and water (B), each supplemented with 0.15% trifluoroacetic acid (TFA) (v/v). The samples were measured isocratically at 10% solvent A for 30 min.
# SARS-CoV-2 3CL^pro [2] = target: T1, SARS-CoV-2 3CL^pro; assay: Inhibitor stability over 24 h (24 h inhibition experiment); assay type: biochemical; details: 0.5 µM 3CLpro with 5 µM peptide, 1/2 h to 24 h at RT, triplicate
# Description: Briefly, 0.5 µM SARS-CoV-2 3CL^pro was incubated with 5 µM of the peptide and incubated for 1/2 h, 1 h, 2 h, 3 h, 4 h, 5 h, and 24 h at RT. The control was performed with the 3CL^pro in the absence of the peptide and measured together after each time point. Subsequently, the reaction was initiated by the addition of the substrate. All measurements were performed in triplicate, and data are presented as mean ± SD.
# SARS-CoV-2 3CL^pro [3] = target: T1, SARS-CoV-2 3CL^pro; assay: Detergent-based (Triton X-100) control assay for aggregation-based promiscuous inhibition; assay type: biochemical; details: 0.001%, 0.01%, 0.1% Triton X-100; four peptide concentrations; triplicate
# Description: A detergent-based control assay was performed to exclude inhibitors that possibly act as aggregators of the 3CL^pro by adding 0.001%, 0.01%, and 0.1% of Triton X-100 to the reaction. […] All measurements were performed in triplicate, and data are presented as mean ± SD.
# Vero CCL-81 cells = assay: MTT cell viability assay; assay type: cell-based, African green monkey; details: n = 3
# Description: Therefore, Vero cells were cultivated in DMEM medium supplemented with 2% fetal calf serum (FCS) and 1% penicillin/streptomycin. A total of 2000 cells per well in a volume of 100 µL were seeded on flat-bottomed 96-well plates (VWR, Radnor, USA) and incubated in a 95% humidified atmosphere with 5% CO2 at 37 °C for 24 h. Subsequently, the cells were treated with 0.2, 1, 5, 10, 25, 50, and 98 µM of each molecule at 37 °C with 5% CO2 for 24 h.
# According to the manufacturer’s instructions, cell viability was measured using the Cell Proliferation Kit I (Roche, Basel, Switzerland) in a 3-fold determination. The absorbance of the formazan product was determined by measuring the absorption at 570 nm and subtracted by the absorbance at 690 nm in a microplate reader (BMG Labtech, Ortenberg, Germany). The results were normalised to the mean value of cells treated with medium only. As a […] control for cytotoxicity, 0.1% Triton X-100 diluted in the medium was used. Cell viability was calculated according to Equation (2):(T/C) × 100%(2) where T and C represented the optical density of the treated well and control groups, respectively.
# [4] = tested on: SARS-CoV-2 B1.1 isolate (NRW-42) in Vero cells; assay type: cell-based
# SARS-CoV-2 3CL^pro [5] = target: T1, SARS-CoV-2 3CL^pro; assay: SARS-CoV-2 3CLpro fluorogenic (DABCYL/EDANS substrate) inhibition assay; assay type: biochemical; details: 0.5 µM 3CLpro, n = 3; for IC50: 30 min pre-incubation with inhibitor at RT, 50 µM substrate, 37 °C, pH 7.2, 1 mM TCEP, mean ± SD, read-out: IC50 [µM] ± STD
# Description: The SARS-CoV-2 3CL^pro activity assay was performed using DABCYL-KTSAVLQ/SGFRKME-EDANS (Bachem, Switzerland) as substrate.
# SARS-CoV-2 3CL^pro activity assay was performed using a fluorogenic substrate DABCYL-KTSAVLQ↓SGFRKME-EDANS (Bachem, Bubendorf, Switzerland) in a buffer containing 20 mM Tris pH 7.2, 200 mM NaCl, 1 mM EDTA, and 1 mM TCEP [31, 32, 33, 34]. The reaction mixture was pipetted in a Corning 96-well plate (Merck, Darmstadt, Germany) containing 0.5 µM protein. The assay was initiated with the addition of the substrate at a final concentration of 50 µM. The fluorescence intensities were measured at 60 s intervals over 30 min using an Infinite 200 PRO plate reader (Tecan, Männedorf, Switzerland), and the temperature was set to 37 °C. The excitation and emission wavelengths were 360 and 460 nm, respectively.
# The activity assay described above investigated the inhibition of SARS-CoV-2 3CL^pro activity by Cro, L- and D-CDPs. 30 µM of the peptides was used for a preliminary screening test.
# For the final inhibition assays, 0.5 µM of the protein was mixed with 0–300 µM Cro, 0–150 µM L-CDPs, and 0–125 µM D-CDPs and subsequently incubated for 30 min at RT. An additional experiment was conducted where the substrate and the inhibitor were added simultaneously (without incubation). When the substrate with a final concentration of 50 µM was added to the mixture, the fluorescence intensities were measured at 60 s intervals over 30 min using an Infinite 200 PRO plate reader (Tecan, Männedorf, Switzerland). The temperature was set to 37 °C, and the excitation and emission wavelengths were 360 and 460 nm, respectively. Inhibition assays were performed in triplicate.
# The IC50 value was calculated by plotting the initial velocity against various concentrations of the combined molecules using a dose-response curve in GraphPad Prism5 software […]. Data are presented as mean ± SD.
# [6] = L- and D-peptide stability against pepsin hydrolysis (simulated gastric fluid); assay type: in vitro ADME; details: simulated gastric fluid with pepsin (3.2 mg/mL); simulated gastric fluid: 2 mg/mL NaCl, 3.2 mg/mL pepsin, 80 mM HCl, pH 1.0; 37 °C, 500 rpm; after 8 h; RP-HPLC C18, 214 nm; read-out: Peptide amount remaining after pepsin incubation
# Description: as §1, §2
# [7] = tested on: all cell types investigated; details: rapid translocation efficiency; cited from earlier work
# Excerpt: These properties were mainly determined by the overall positive net surface charge distribution of crotamine. Characterised as a novel cell-penetrating polypeptide (CPP) nanocarrier, Cro has biotechnological ...
# pepsin, sequence (P00791 60-385): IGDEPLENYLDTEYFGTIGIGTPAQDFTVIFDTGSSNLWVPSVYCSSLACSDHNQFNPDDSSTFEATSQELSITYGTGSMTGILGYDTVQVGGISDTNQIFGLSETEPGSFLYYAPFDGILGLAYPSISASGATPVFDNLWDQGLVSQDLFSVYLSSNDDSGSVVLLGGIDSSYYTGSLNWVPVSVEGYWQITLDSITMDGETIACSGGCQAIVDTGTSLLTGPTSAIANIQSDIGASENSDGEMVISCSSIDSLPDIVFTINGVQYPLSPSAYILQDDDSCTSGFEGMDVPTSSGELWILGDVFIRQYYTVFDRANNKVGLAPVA
Compound,Inhibition Type (SARS-CoV-2 3CL^pro [1]),Stability against pepsin hydrolysis (in words) (pepsin),Inhibition of SARS-CoV-2 3CLpro over 24 h (stability of inhibitor) (SARS-CoV-2 3CL^pro [2]),Aggregation-based inhibition (inhibition diminished by detergent) (SARS-CoV-2 3CL^pro [3]),Cytotoxic effect at the calculated IC50 concentrations (Vero CCL-81 cells),Viral RNA in cell culture supernatant [4],Concentration giving 100% protease inhibition (SARS-CoV-2 3CL^pro [5]; dose-dependent study) [µM],remaining at 8 h [6] [%],IC50 (SARS-CoV-2 3CL^pro [5]) [µM],Time for translocation into cells [7] [min]
COC(=O)[C@@H](CCCCN)NC(=O)[C@@H](CCCCN)NC(=O)[C@@H](CS)NC(=O)[C@@H](CS)NC(=O)[C@@H](CCCCN)NC(=O)[C@@H](Cc1c[nH]c2ccccc12)NC(=O)[C@@H](CCCNC(=N)N)NC(=O)[C@@H](Cc1c[nH]c2ccccc12)NC(=O)[C@@H](CCCNC(=N)N)NC(=O)[C@@H](CS)NC(=O)[C@@H](CC(=O)O)NC(=O)[C@@H](CCSC)NC(=O)[C@@H](CCCCN)NC(C)=O [D-CDP1] (Ac-[dK][dM][dD][dC][dR][dW][dR][dW][dK][dC][dC][dK][dK]-OMe),Competitive,stable against pepsin hydrolysis,constant inhibition,not observed,no cytotoxic effect,significant decrease in viral RNA,,,,
COC(=O)[C@H](CCCCN)NC(=O)[C@H](CCCCN)NC(=O)[C@H](CS)NC(=O)[C@H](CS)NC(=O)[C@H](CCCCN)NC(=O)[C@H](Cc1c[nH]c2ccccc12)NC(=O)[C@H](CCCNC(=N)N)NC(=O)[C@H](Cc1c[nH]c2ccccc12)NC(=O)[C@H](CCCNC(=N)N)NC(=O)[C@H](CS)NC(=O)[C@H](CC(=O)O)NC(=O)[C@H](CCSC)NC(=O)[C@H](CCCCN)NC(C)=O [L-CDP1] (Ac-KMDCRWRWKCCKK-OMe),Competitive,,constant inhibition,not observed,,,30,~50,,
COC(=O)[C@H](CCCCN)NC(=O)[C@H](CCCCN)NC(=O)[C@H](CO)NC(=O)[C@H](CO)NC(=O)[C@H](CCCCN)NC(=O)[C@H](Cc1c[nH]c2ccccc12)NC(=O)[C@H](CCCNC(=N)N)NC(=O)[C@H](Cc1c[nH]c2ccccc12)NC(=O)[C@H](CCCNC(=N)N)NC(=O)[C@H](CS)NC(=O)[C@H](CC(=O)O)NC(=O)[C@H](CCSC)NC(=O)[C@H](CCCCN)NC(C)=O [L-CDP3] (Ac-KMDCRWRWKSSKK-OMe),,,,,,,,,8.5 ± 1,
"YKQCHKKGGHCFPKEKICLPPSSDFGKMDCRWRWKCCKKGSG (disulfide 4-36, 11-30, 18-37) [Crotamine]",,,,,,,,,40 ± 3.1,≤ 5
